Laboratory results from patent US20250032493A1, “Methods for Treating Diseases Using MALT1 Inhibitors” (RARIFIED BIOSCIENCES, INC., priority 2021, published 2025).
“Also recorded” adds a separate entry of the source. One block for each compound: values may come before it.

Experiments:
MALT1 [1] = target: T1, MALT1 (Homo sapiens, UniProt Q9UDY8); experiment: Example IC50 and IC90 values of MALT1 inhibitors (blood concentration targets); assay type: cell-based; conditions: example values, blood concentration target; read-out: IC90
T1 sequence (Q9UDY8 1-824): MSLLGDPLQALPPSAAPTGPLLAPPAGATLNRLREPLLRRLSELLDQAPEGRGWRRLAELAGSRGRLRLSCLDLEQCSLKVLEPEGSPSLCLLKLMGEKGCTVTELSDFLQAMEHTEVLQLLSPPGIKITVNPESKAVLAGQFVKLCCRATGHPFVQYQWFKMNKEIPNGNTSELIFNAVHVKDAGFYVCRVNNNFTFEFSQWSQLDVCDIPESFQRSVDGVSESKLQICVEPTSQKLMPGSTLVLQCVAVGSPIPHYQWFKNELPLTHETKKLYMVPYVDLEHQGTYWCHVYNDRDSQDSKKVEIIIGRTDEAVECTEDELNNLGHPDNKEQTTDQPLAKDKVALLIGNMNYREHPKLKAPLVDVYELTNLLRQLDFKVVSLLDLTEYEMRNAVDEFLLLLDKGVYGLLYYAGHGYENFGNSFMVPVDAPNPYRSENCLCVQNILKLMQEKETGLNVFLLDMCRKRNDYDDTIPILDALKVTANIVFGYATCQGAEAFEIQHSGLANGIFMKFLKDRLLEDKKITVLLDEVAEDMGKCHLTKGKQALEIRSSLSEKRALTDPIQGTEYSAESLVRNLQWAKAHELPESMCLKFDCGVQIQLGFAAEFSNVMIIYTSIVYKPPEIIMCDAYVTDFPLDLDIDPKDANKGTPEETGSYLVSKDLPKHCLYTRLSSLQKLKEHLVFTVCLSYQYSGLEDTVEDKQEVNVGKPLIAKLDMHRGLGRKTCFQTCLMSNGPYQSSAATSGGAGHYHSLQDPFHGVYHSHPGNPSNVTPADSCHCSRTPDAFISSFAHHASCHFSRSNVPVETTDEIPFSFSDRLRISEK
Text: In various embodiments, the plasma PK profile of the MALT1 inhibitor refers to a time over an IC50 blood concentration target following administration to the subject. As used herein, a “time over an IC50 blood concentration target” refers to a period of time following administration in which a concentration of the MALT1 inhibitor in the subject's blood is above the IC50 value.
In various embodiments, the plasma PK profile of the MALT1 inhibitor refers to a time over an IC90 blood concentration target following administration to the subject. As used herein, a “time over an IC90 blood concentration target” refers to a period of time following administration in which a concentration of the MALT1 inhibitor in the subject's blood is above the IC90 value.

splenic Tregs = experiment: Rat CIA model: splenic Treg levels; assay type: in vivo; conditions: for reduction in the Treg levels: in comparison to vehicle
Description: For isolation of synovial fluid prior to study termination, animals were anesthetized and the skin on the hind limbs were separated to ensure exposure of knee joint. A small incision was made near the top of the knee joint and the articular cavity was rinsed with 60 μl phosphate-buffered saline (PBS) for 2 time and ˜50-60 μl synovial fluid was collected. The synovial fluid samples were spun down, and the supernatant stored at −80° C. prior to cytokine analysis. At study termination, plasma was prepared from whole blood and stored at −80° C. prior to cytokine analysis and measurement of total and anti-collagen IgG. Single cell suspensions were prepared from harvested spleens following standard methods and Treg frequencies measured by flow cytometry-based immunophenotyping of freshly isolated cells.
Harvested spleens were homogenized in cold PBS and cellular debris removed by passing through a […] cell strainer. The cell suspension was centrifuged at 300×g for 5 min at 4° C. and the pellet was treated with 1×RBC lysis buffer per manufacturer's protocol (Thermofisher). The washed cell pellet was resuspended for a final concentration of 5-10×10^6 cells/ml and 100 μl of cell suspension was processed for immunophenotyping. […] Cells were washed with cold FACS wash buffer (BD) and fixed with 1×FoxP3/Transcription Factor Fixation Buffer (Thermofisher) for overnight at 4° C. […] Cells were washed 2-3× with the permeabilization and wash buffer as mentioned earlier, and finally resuspended in FACS wash buffer. Samples were acquired on a BD LSRFortessa flow cytometer and data analyzed using the FlowJo software (BD).

[2] = tested on: rat collagen induced arthritis (CIA) model; experiment: Rat collagen-induced arthritis model: clinical score; conditions: for reduction in the clinical score: in comparison to the vehicle treatment
Description: Adult female Lewis Rats (180-200 g body weight) were immunized subcutaneously with Type II bovine collagen/Incomplete Freund's Adjuvant emulsion on Day 0 and Day 7. On Day 14 rats were randomized based on clinical disease scores in different treatment groups. Rats received either once daily (q.d) dose of compounds via oral gavage or Vehicle (0.5% Carboxymethylcellulose-Na+0.5% Tween 80 in water, suspension) for 2 weeks. Naïve rats used as controls.

Tregs = experiment: Naïve mice: Treg levels after 4 weeks of dosing; assay type: in vivo; conditions: 100 mg/kg dose, in comparison to vehicle control
Description: Mice were dosed for 4 weeks with REO-751 or REO-095 and splenocytes were analyzed for Treg levels. Specifically, REO-751 or REO-095 MALT1 inhibitors were dosed at one of 1 mg/kg (mpk), 10 mg/kg (mpk), or 100 mg/kg (mpk).

MALT1 [3] = target: T1, MALT1; experiment: IC50 and Kd values of MALT1 inhibitors (FIG. 17C)
[4] = tested on: sclerodermatous GVHD (scGVHD) model; experiment: Mouse GVHD (scGVHD) model: GVHD score and progression-free survival; assay type: in vivo, mice; conditions: 100 mg/kg orally once daily days 21-56, at the end (Day 56)
Description: In this example, REO-751 MALT1 inhibitor at a dose of 100 mg/kg was administered to mice of a graft versus host disease (GVHD) model to investigate the impact of the administration of the MALT1 inhibitor. The effects of MALT1 inhibitors were evaluated in scGVHD and delayed-type hypersensitivity (DTH) models. For the scGVHD model, bone marrow (1E7 cells) and splenocytes (4E6) from LP/J donors were transferred to C57Bl/6 recipients that had received 8.5. Gy of total irradiation on the previous day. For the DTH model, female Balb/c mice were immunized with keyhole limpet hemocyanin (KLH) subcutaneously on day 0 and challenged with KLH intradermally 7 days later.
(§1) At time=0, mice were dosed with 1) naive, 2) vehicle, 3) REO-751 MALT1 inhibitor (100 mg/kg), or 4) ruxolitinib (60 mg/kg). […] GVHD scores were determined by monitoring the behavior of the mice post-administration according to the following grading system.
FIGS. 22A-22F show results following administration of a MALT1 inhibitor. Here, “Cpd1” and Cpd2” as shown in FIGS. 22A-22F refer to REO-751 MALT1 inhibitor. FIGS. 22A and 22B show overall survival (OS) and progression-free survival (PFS) Kaplan Meier curves, respectively, in a murine model of sclerodermatous GVHD (scGVHD) following administration of a MALT1 inhibitor. […]

[5] = tested on: spleen TFH cells, GC B cells, Treg cells; experiment: Mouse GVHD model: spleen cell populations (TFH, GC B cells, Tregs); assay type: in vivo, mice
Text: Here, FIGS. 22C-22E show percentages of each cell population in spleen, as measured by flow cytometry.

[6] = Mouse GVHD model: pharmacokinetics; assay type: in vivo, mice; conditions: C57Bl/6, blood, oral; 100 mg/kg, on Day 55, mouse GVHD model; read-out: concentration at 24 hours post-administration
Description: as §1

IL-2R signaling (pSTAT5) = conditions: 1 μM, positive control
Description: Purified Tregs were expanded as indicated above. […] Tregs were then stimulated with 25 IU IL-2 (Peprotech) for 15 min, followed by fixation with 2% paraformaldehyde. […] Levels of pSTAT5 were analyzed on a BD LSRFortessa flow cytometer.
Next, the impact of MALT1i on IL2R signaling was investigated. IL-2R signaling results in phosphorylation of STAT5 (pSTAT5) and is dependent on JAK1/3. Therefore, a flow cytometric readout of pSTAT5 was used to measure IL-2R activity and the JAK1/3-inhibitor tofacitinib served as a positive control for inhibition of pSTAT5.

IC90 (MALT1 [1]): 4.95 µM
Compound: O=C(Nc1ccnc(C(F)(F)F)c1)Nc1cnn2ccc(Cl)c2c1C1CC1 [REO-703]
reduction in the Treg levels (splenic Tregs; CIA rats, 3, 10 and 30 mg/kg): none of the doses of REO-703 resulted in a statistically significant reduction; also recorded: did not exhibit reduction of Tregs
reduction in the clinical score ([2]; 3 mg/kg dose): 35%
reduction in the clinical score ([2]; 10 mg/kg dose): 57%
reduction in the clinical score ([2]; 30 mg/kg dose): 60%
dose-dependent efficacy (FIG. 12A) ([2]; rat CIA model): showed efficacy in a rat CIA model in a dose-dependent manner
log10AUC value at ~50% reduction in the clinical score ([2]; rat CIA model): ~1.2 μg*hr/mL

Compound: O=C(Nc1ccnc(C(F)(F)F)c1)c1cnn(-c2cccc3c(=O)[nH]ccc23)c1C(F)(F)F [REO-095]
reduction of Treg levels (Tregs): 32%

Compound: CO[C@@H](C)c1c(NC(=O)Nc2cnc(-n3nccn3)c(Cl)c2)cnc2cc(Cl)nn12 [REO-751]
reduction of Treg levels (Tregs): 76%
potency (IC50 values and Kd value) in comparison to REO-095 (MALT1 [3]): increased potency
mice achieving progression free survival [4]: 40%
difference in Treg with treatment [5]: No difference
concentration at 24 h [6]: 385 ng/mL

Compound: CO[C@@H](C)c1c(Nc2ccc([C@H](N(C)C(=O)C3CCN(C(C)=O)CC3)C(F)(F)F)cc2)cnc2cc(Cl)nn12 [REO-076]
reduction in the Treg levels (splenic Tregs; 3 mg/kg dose, CIA rats): 24%
reduction in the Treg levels (splenic Tregs; 10 mg/kg dose, CIA rats): 30%
reduction in the Treg levels (splenic Tregs; 30 mg/kg dose, CIA rats): 40%
log10AUC value at ~40% reduction in Treg levels (splenic Tregs; rat CIA model): ~2.25 μg*hr/mL
reduction in the clinical score ([2]; 3 mg/kg dose): 23%
reduction in the clinical score ([2]; 10 mg/kg dose): 42%
reduction in the clinical score ([2]; 30 mg/kg dose): 74%
log10AUC value at ~50% reduction in the clinical score ([2]; rat CIA model): ~1.85 μg*hr/mL

IC90 (MALT1 [1]): 5.78 µM
Compound: CO[C@@H](C)c1c(Nc2ccc([C@H](N(C)C(=O)C3CCS(=O)(=O)CC3)C(F)(F)F)cc2)cnc2cc(Cl)nn12 [REO-528]
reduction in the Treg levels (splenic Tregs; 3 mg/kg dose, CIA rats): 3%
reduction in the Treg levels (splenic Tregs; 10 mg/kg dose, CIA rats): 36%
reduction in the Treg levels (splenic Tregs; 30 mg/kg dose, CIA rats): 37%
dose-dependent reduction of Tregs (FIG. 12B) (splenic Tregs; rat CIA model): dose-dependent reduction of Tregs was observed
log10Cmax value at ~40% reduction in Treg levels (splenic Tregs; rat CIA model): ~3.9 ng/mL
log10Ctrough value at ~50% reduction in Treg levels (splenic Tregs; rat CIA model): ~2.6 ng/mL
qualitative Treg impact (FIG. 11) (splenic Tregs; rat CIA model): low Treg impact
reduction in the clinical score ([2]; 3 mg/kg dose): 24%
reduction in the clinical score ([2]; 10 mg/kg dose): 59%
reduction in the clinical score ([2]; 30 mg/kg dose): 74%
dose-dependent efficacy (FIG. 12A) ([2]; rat CIA model): showed efficacy in a rat CIA model in a dose-dependent manner
log10AUC value at ~50% reduction in the clinical score ([2]; rat CIA model): ~1.2 μg*hr/mL
log10Cmax value at ~50% reduction in the clinical score ([2]; rat CIA model): ~3.3 ng/mL
log10Ctrough value at ~50% reduction in the clinical score ([2]; rat CIA model): ~2.2 ng/mL
qualitative efficacy (FIG. 11) ([2]; rat CIA model): high efficacy

Compound: C[C@@H]1CCN(C(=O)CC#N)C[C@@H]1N(C)c1ncnc2[nH]ccc12 [tofacitinib, reference compound]
basal levels of pSTAT5 in Tregs (IL-2R signaling (pSTAT5)): reduced
reduction in the endpoint clinical score ([2]; 5 mg/kg dose): 75%
